From patent publication US20040152674A1, “Pharmaceutically active compounds and methods of use thereof” (Trustees of Tufts College, priority 1998, published 2004)
Converted amounts (≈) assume the structure as drawn.

Key:
E. coli D31m4(pHCM1) (B) = assay: MIC in L broth tubes (Example 10); assay type: cell-based; details: Escherichia coli, read-out: Minimum Inhibitory Concentration
Description: (§1) The inhibitory effects of compounds of the invention were examined relative to doxycycline using tetracycline-sensitive and tetracycline-resistant strains of E. coli, S. aureus, and E. faecalis as specified in the Tables below. The general protocol for performing these experiments was as follows: cultures were grown up fresh in L broth in the morning from an overnight culture. After 4-6 hours of growth, each bacterial culture was diluted to an A530 of 0.2-0.5 depending on the strain (E. coli, 0.5; S. aureus, 0.4; E. faecalis, 0.2). Individual tubes, containing 1 ml of L broth and different concentrations of the tested compound, were inoculated with the different bacterial cultures and then incubated at 37° C. After 17-18 hours of incubation, the concentration of the tested compound at which no observed cloudiness was seen was called the minimal inhibitory concentration (MIC). The results obtained are set forth in Tables 2 and 3 below, with the MIC values expressed in μg/ml and set forth in columns beneath the tested compound.

E. coli D31m4 [1] = assay: MIC in L broth tubes (Example 10); assay type: cell-based; details: Escherichia coli, D31M4, read-out: Minimum Inhibitory Concentration
Description: as §1

E. faecalis ATCC9790 [2] = assay: MIC in L broth tubes (Example 10); assay type: cell-based; details: Enterococcus faecalis; E. faecalis ATCC9790, tetracycline sensitive; 17-18 hours, 37° C.; read-out: Minimum Inhibitory Concentration
Description: as §1

E. faecalis pAM211 (L) = assay: MIC in L broth tubes (Example 10); assay type: cell-based; details: Enterococcus faecalis, read-out: Minimum Inhibitory Concentration
Description: as §1

S. aureus 12715 (K) = assay: MIC in L broth tubes (Example 10); assay type: cell-based; details: Staphylococcus aureus, tetracycline resistant, 17-18 hours, 37° C., read-out: Minimum Inhibitory Concentration
Description: as §1

S. aureus RN4250 (K) = assay: MIC in L broth tubes (Example 10); assay type: cell-based; details: Staphylococcus aureus, read-out: Minimum Inhibitory Concentration
Description: as §1

S. aureus RN450 [3] = assay: MIC in L broth tubes (Example 10); assay type: cell-based; details: Staphylococcus aureus; S. aureus RN450, tetracycline sensitive; 17-18 hours, 37° C.; read-out: Minimum Inhibitory Concentration
Description: as §1

VRE 11 = assay: MIC in L broth tubes (Example 10); assay type: cell-based; details: Enterococcus, read-out: Minimum Inhibitory Concentration
Description: as §1

VRE 15 = assay: MIC in L broth tubes (Example 10); assay type: cell-based; details: Enterococcus, read-out: Minimum Inhibitory Concentration
Description: as §1

VRE 17 = assay: MIC in L broth tubes (Example 10); assay type: cell-based; details: Enterococcus; VRE 17, tetracycline sensitive; read-out: Minimum Inhibitory Concentration
Description: as §1

VRE 19 = assay: MIC in L broth tubes (Example 10); assay type: cell-based; details: Enterococcus; VRE 19, tetracycline sensitive; read-out: Minimum Inhibitory Concentration
Description: as §1

E. faecalid pMV158 (L) = assay: MIC in L broth tubes (Example 10); assay type: cell-based, E. faecalis; details: Enterococcus faecalis, read-out: Minimum Inhibitory Concentration
Description: as §1

MRSA 1 = assay: MIC in L broth tubes (Example 10); assay type: cell-based, S. aureus
Description: as §1

MRSA 3 = assay: MIC in L broth tubes (Example 10); assay type: cell-based, S. aureus; details: Staphylococcus aureus, read-out: Minimum Inhibitory Concentration
Description: as §1

E. coli D31m4(pHCM1) = assay: MIC by broth dilution method (Table 4); assay type: cell-based; design: unit not given here; details: E. coli D31m4(pHCM1) Tcr; 18 hours
Description: (§2) The minimum inhibitory concentration, the lowest concentration of drug that inhibits bacterial growth at 18 hours at their appropriate temperature, is determined by the broth dilution method using L-broth or Muller-Hinton broth. The Muller-Hinton broth was cation-adjusted accordingly and all bacteriological methods were performed as was described by Waitz, J. A., National Commision for Clinical Laboratory Standards Document M7-A2, vol.10, no. 8, pp.13-20, 2nd edition, Villanova, Pa. (1990). The organisms tested represent gram-positive and gram-negative bacterial species that are susceptible to tetracyclines or are resistant to tetracyclines due to the ability to efflux tetracyclines or which confer resistance by ribosomal protection mechanisms. The clinical strains used are either susceptible to tetracyclines or are resistant to them by either drug efflux or ribosomal protection.

E. coli D31m4 [4] = assay: MIC by broth dilution method (Table 4); assay type: cell-based; design: unit not given here; details: E. coli D31m4* Tc^r, lipopolysaccharide-deficient mutant; 18 hours
Description: as §2

E. faecalis ATCC9790 [5] = assay: MIC by broth dilution method (Table 4); assay type: cell-based; design: unit not given here; details: E. faecalis Tc^r ATCC9790; 18 hours
Description: as §2

E. faecalis pAM211 = assay: MIC by broth dilution method (Table 4); assay type: cell-based; design: unit not given here; details: E. faecalis pAM211 Tc^r; 18 hours
Description: as §2

E. faecalis pMV158 = assay: MIC by broth dilution method (Table 4); assay type: cell-based; design: unit not given here; details: E. faecalis pMV158 Tc^r; 18 hours
Description: as §2

S. aureus ATCC12715 = assay: MIC by broth dilution method (Table 4); assay type: cell-based; design: unit not given here; details: S. aureus Tc^r ATCC12715; 18 hours
Description: as §2

S. aureus MRSA5 = assay: MIC by broth dilution method (Table 4); assay type: cell-based; design: unit not given here; details: S. aureus MRSA5 Tc^r; 18 hours
Description: as §2

S. aureus RN4250 = assay: MIC by broth dilution method (Table 4); assay type: cell-based; design: unit not given here; details: S. aureus RN4250 Tc^r; 18 hours
Description: as §2

S. aureus RN450 [6] = assay: MIC by broth dilution method (Table 4); assay type: cell-based; design: unit not given here; details: S. aureus RN450 Tc^s; 18 hours
Description: as §2

SMILES | Antibacterial activity (minimum inhibitory concentration) (E. coli D31m4(pHCM1)) | Antibacterial activity (minimum inhibitory concentration) (E. coli D31m4 [4]) | Antibacterial activity (minimum inhibitory concentration) (E. faecalis ATCC9790 [5]) | Antibacterial activity (minimum inhibitory concentration) (E. faecalis pAM211) | Antibacterial activity (minimum inhibitory concentration) (E. faecalis pMV158) | Antibacterial activity (minimum inhibitory concentration) (S. aureus ATCC12715) | Antibacterial activity (minimum inhibitory concentration) (S. aureus MRSA5) | Antibacterial activity (minimum inhibitory concentration) (S. aureus RN4250) | Antibacterial activity (minimum inhibitory concentration) (S. aureus RN450 [6]) | further results
C[C@H]1c2cccc(O)c2C(=O)C2=C(O)[C@]3(O)C(=O)C(C(N)=O)=C(O)[C@@H](N(C)C)C3[C@@H](O)C21 (stereo partly drawn) [Doxycycline, [4S-(4alpha,12aalpha)]-4-(dimethylamino)-1,4,4a,5,5a,6,11,12a-octahydro-3,5,10,12,12a-pentahydroxy-6-methyl-1,11-dioxo-2-naphthacenecarboxamide, reference compound] | 12.5 | 0.78 | 0.39 | 12.5 | 6.25 | 50 | 6.25 | 25 | 0.195 | MIC (E. coli D31m4(pHCM1) (B)): 12.5 µg/mL (≈ 28.1 µM); MIC (E. coli D31m4 [1]): < 0.78 µg/mL; MIC (E. faecalis ATCC9790 [2]): < 0.78 µg/mL; MIC (E. faecalis pAM211 (L)): 12.5 µg/mL (≈ 28.1 µM); MIC (S. aureus 12715 (K)): 25 µg/mL (≈ 56.3 µM); MIC (S. aureus RN4250 (K)): 12.5 µg/mL (≈ 28.1 µM); MIC (S. aureus RN450 [3]): < 0.78 µg/mL; MIC (VRE 11): 12.5 µg/mL (≈ 28.1 µM); MIC (VRE 15): 12.5 µg/mL (≈ 28.1 µM); MIC (VRE 17): ≤ 1.56 µg/mL; MIC (VRE 19): ≤ 1.56 µg/mL; MIC (E. faecalid pMV158 (L)): 12.5 µg/mL (≈ 28.1 µM); Minimum Inhibitory Concentration (MRSA 1; MRSA 1, listed under Tetracycline Sensitive Bacteria): 6.25 µg/mL; MIC (MRSA 1; Staphylococcus aureus, MRSA, read-out: Minimum Inhibitory Concentration): 6.25 µg/mL (≈ 14.1 µM); MIC (MRSA 3): 6.25 µg/mL (≈ 14.1 µM)
CC1c2ccc(C(C)(C)CCCBr)c(O)c2C(=O)C2=C(O)[C@]3(O)C(=O)C(C(N)=O)=C(O)[C@@H](N(C)C)C3C(O)C21 (stereo partly drawn) [I, [4S-(4alpha,12aalpha)]-9-[4′-(1′-bromo-4′-methyl)pentyl]-4-(dimethylamino)-1,4,4a,5,5a,6,11,12a-octahydro-3,5,10,12,12a-pentahydroxy-6-methyl-1,11-dioxo-2-naphthacenecarboxamide] | 1.56 | 1.56 | 0.39 | 0.78 | 0.08 | 0.78 | 0.39 | 0.08 | 0.39 | –
CC1c2ccc(C(C)(C)CCCN(C)C)c(O)c2C(=O)C2=C(O)[C@]3(O)C(=O)C(C(N)=O)=C(O)[C@@H](N(C)C)C3C(O)C21 (stereo partly drawn) [J, [4S-(4alpha,12aalpha)]-9-[4′-(1′-dimethylamino-4′-methyl)pentyl]-4-(dimethylamino)-1,4,4a,5,5a,6,11,12a-octahydro-3,5,10,12,12a-pentahydroxy-6-methyl-1,11-dioxo-2-naphthacenecarboxamide] | 50 | 50 | 50 | 50 | 50 | 50 | 50 | 50 | 50 | –
CC1c2ccc(C(C)(C)CCCN3CCCC3)c(O)c2C(=O)C2=C(O)[C@]3(O)C(=O)C(C(N)=O)=C(O)[C@@H](N(C)C)C3C(O)C21 (stereo partly drawn) [K, [4S-(4alpha,12a-alpha)]-9-[4′-(1′-pyrrolidinyl-4′-methyl)pentyl]-4-(dimethylamino)-1,4,4a,5,5a,6,11,12a-octahydro-3,5,10,12,12a-pentahydroxy-6-methyl-1,11-dioxo-2-naphthacenecarboxamide] | 50 | 50 | 25 | 25 | 25 | 50 | 6.25 | 50 | 25 | –
